Data on two compounds can be found in patent US20240277585A1, “COMPOSITION OF LIPID NANOPARTICLE CONTAINING VITIS VINIFERA EXTRACT, COSMETIC USES OF A COMPOSITION OF LIPID NANOPARTICLE CONTAINING VITIS VINIFERA EXTRACT, ANTIOXIDANT DERMOCOSMETIC PRODUCT AND FOR PREVENTING SKIN AGING AND SKIN CARE METHOD” (ACHÉ LABORATÓRIOS FARMACÊUTICOS S.A., priority 2021, published 2024).

Format in all cases: biochemical
For one assay, the system named is elastase. Description: Activity of the elastase enzyme. The method, then: (§1) The anti-aging effect of the composition of the first aspect was determined by the methods that measure the activity of the elastase enzyme and the activity of the metalloproteases (MMP) enzyme.
In another assay the target is T1, MMP 1 (Homo sapiens, UniProt P03956).
T1 sequence (P03956 100-469): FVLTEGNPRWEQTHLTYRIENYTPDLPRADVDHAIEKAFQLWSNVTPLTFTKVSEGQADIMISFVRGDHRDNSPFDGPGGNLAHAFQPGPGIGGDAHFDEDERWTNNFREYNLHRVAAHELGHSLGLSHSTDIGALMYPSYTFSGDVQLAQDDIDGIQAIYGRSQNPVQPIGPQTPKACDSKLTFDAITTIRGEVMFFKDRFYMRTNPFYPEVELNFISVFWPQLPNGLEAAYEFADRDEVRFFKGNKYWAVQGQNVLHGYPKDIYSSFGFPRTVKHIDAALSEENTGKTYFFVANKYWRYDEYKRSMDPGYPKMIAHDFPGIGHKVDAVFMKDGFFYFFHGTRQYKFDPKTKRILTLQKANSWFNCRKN
Kind of assay: Activity of the metalloproteases (MMP) enzyme. The method, then: as §1

For a further assay, the target named is MMP 12 (Homo sapiens, UniProt P39900). Description: Activity of the metalloproteases (MMP) enzyme. The method, then:
as §1

A further assay addresses MMP 3 (Homo sapiens, UniProt P08254). Kind of assay: Activity of the metalloproteases (MMP) enzyme. The method, then:
as §1

Chain of MMP 12 (P39900 106-470): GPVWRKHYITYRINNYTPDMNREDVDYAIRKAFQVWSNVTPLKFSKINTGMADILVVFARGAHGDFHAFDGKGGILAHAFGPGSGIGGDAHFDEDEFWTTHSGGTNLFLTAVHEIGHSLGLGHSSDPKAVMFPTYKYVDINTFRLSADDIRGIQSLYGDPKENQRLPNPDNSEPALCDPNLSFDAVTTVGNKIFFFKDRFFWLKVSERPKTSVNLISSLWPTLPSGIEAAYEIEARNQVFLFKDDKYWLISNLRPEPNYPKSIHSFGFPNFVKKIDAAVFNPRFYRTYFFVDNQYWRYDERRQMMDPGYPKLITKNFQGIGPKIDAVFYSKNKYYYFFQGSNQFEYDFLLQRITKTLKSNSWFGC
Chain of MMP 3 (P08254 100-477): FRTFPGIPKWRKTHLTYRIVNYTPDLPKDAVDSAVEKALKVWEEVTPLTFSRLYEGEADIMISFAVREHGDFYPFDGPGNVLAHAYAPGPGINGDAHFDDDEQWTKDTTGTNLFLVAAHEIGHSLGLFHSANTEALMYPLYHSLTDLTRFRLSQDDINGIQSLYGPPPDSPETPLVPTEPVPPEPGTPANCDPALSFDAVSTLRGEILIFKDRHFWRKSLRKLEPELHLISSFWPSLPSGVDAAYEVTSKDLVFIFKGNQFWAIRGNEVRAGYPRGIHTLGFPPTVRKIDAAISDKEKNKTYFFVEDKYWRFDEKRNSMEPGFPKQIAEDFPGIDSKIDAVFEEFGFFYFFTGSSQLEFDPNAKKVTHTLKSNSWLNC

With `O=C1O[C@H]([C@@H](O)CO)C(O)=C1O` [Vitamin C], in the assay with elastase, the “Inhibition of the activity of elastase” value was “do not present such result”. Moreover, the “Inhibition of the activity of MMP 1” value at MMP 1 was “do not present this result”. Also, on MMP 12, the “Inhibition of the activity of MMP 12” value is given as “do not present this result”. Moreover, the “Inhibition of the activity of MMP 3” value on MMP 3 was “do not present this result”.

On to Vitamin E, for which, in the assay with elastase, the “Inhibition of the activity of elastase” value is on record as “do not present such result”. For the same compound, on MMP 1, the “Inhibition of the activity of MMP 1” value is recorded as “do not present this result”. Besides, the “Inhibition of the activity of MMP 12” value on MMP 12 was “do not present this result”. On MMP 3, the “Inhibition of the activity of MMP 3” value is on record as “do not present this result”.
